Test results published in article PMC6233161, “The anti-tumor diterpene oridonin is a direct inhibitor of Nucleolin in cancer cells” (Scientific Reports, 2018).

Key:
Nucleolin = molecular target: T1, Nucleolin (Homo sapiens, UniProt P19338); experiment: SPR (Biacore […], immobilized Nucleolin on CM5 chip); supported by CETSA, DARTS and affinity pull-down; format: binding
T1 construct: gene NCL; Recombinant human Nucleolin

HSP70 = molecular target: T2, HSP70 (Homo sapiens, UniProt P0DMV8); experiment: DARTS in Jurkat lysate and living cells at […] (MS and western blot); pull-down with immobilized oridonin; format: cell-based
T2 construct: gene HSPA1A
T2 sequence (P0DMV8 2-641): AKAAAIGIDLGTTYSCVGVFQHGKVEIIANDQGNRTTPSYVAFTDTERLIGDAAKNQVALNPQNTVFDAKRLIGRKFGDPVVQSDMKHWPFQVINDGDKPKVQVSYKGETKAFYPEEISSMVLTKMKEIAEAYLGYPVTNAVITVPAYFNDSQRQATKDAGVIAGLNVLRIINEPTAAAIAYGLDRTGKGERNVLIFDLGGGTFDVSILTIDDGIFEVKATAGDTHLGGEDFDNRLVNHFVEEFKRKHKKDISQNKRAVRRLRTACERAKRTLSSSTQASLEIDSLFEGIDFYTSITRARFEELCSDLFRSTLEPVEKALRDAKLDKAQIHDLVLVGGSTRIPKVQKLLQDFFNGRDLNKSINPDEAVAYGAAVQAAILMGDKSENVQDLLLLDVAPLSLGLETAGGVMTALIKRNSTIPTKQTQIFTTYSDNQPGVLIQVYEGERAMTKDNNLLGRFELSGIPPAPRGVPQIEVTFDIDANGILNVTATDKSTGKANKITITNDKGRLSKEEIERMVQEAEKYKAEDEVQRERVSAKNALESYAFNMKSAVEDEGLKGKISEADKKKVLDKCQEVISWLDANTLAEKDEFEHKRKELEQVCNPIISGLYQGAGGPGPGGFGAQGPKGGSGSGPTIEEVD

T1 sequence (P19338 2-710): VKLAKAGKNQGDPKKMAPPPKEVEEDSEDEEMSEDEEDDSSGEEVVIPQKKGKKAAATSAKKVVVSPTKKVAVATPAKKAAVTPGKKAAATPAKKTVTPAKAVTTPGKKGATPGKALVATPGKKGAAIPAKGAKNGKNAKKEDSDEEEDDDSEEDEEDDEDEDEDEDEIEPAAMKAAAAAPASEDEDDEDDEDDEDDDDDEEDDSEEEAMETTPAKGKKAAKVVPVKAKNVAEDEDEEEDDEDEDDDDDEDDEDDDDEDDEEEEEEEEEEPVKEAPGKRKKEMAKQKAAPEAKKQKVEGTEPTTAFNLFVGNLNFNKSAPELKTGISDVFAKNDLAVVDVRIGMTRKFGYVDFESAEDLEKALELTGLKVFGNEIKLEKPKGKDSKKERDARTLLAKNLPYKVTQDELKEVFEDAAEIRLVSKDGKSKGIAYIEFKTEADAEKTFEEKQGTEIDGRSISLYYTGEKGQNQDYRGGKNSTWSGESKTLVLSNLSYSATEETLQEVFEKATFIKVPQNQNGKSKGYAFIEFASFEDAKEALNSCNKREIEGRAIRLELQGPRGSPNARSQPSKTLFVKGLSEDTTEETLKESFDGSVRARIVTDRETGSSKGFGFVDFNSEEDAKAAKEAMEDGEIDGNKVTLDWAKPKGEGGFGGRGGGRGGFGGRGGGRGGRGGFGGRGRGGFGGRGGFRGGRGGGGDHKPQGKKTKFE

Kd (Nucleolin): 3.8 ± 1.2 nM
SMILES: C=C1C(=O)[C@]23[C@H](O)[C@H]1CC[C@H]2[C@@]12CO[C@]3(O)[C@@H](O)[C@@H]1C(C)(C)CC[C@@H]2O [oridonin]
DARTS in Jurkat lysate and living cells at 5 μM (MS and western blot); pull-down (HSP70): only three proteins emerged as putative oridonin targets: HSP70, HSP90, and Nucleolin
